Assay results taken from ChEMBL document CHEMBL5233248, “Resveratrol - A comprehensive review of recent advances in anticancer drug design and development” (Eur J Med Chem, 2020).
pIC50: −log10 of the molar value.

Columns and labels:
[1] = tested on: HL-60; assay: Anticancer activity against human HL-60 cells assessed as cell growth inhibition incubated for 48 hrs by MTT assay; assay type: functional, cell-based; settings: HL-60, 48 h
[2] = tested on: HeLa; assay: Anticancer activity against human HeLa cells assessed as cell growth inhibition incubated for 48 hrs by MTT assay; assay type: functional, cell-based
[3] = tested on: SF-539; assay: Anticancer activity against human SF-539 cells assessed as cell growth inhibition; assay type: functional
[4] = tested on: MDA-MB-435; assay: Anticancer activity against human MDA-MB-435 cells assessed as cell growth inhibition; assay type: functional
[5] = tested on: COLO 205; assay: Anticancer activity against human COLO 205 cells assessed as cell growth inhibition; assay type: functional
[6] = tested on: SK-MEL-5; assay: Anticancer activity against human SK-MEL-5 cells assessed as cell growth inhibition; assay type: functional
[7] = tested on: MV4-11; assay: Anticancer activity against human MV4-11 cells assessed as cell growth inhibition; assay type: functional; settings: read-out: LD50 (the source's name)
[8] = tested on: Panel NCI-60 (60 carcinoma cell lines); assay: Growth inhibition of human Panel NCI-60 (60 carcinoma cell lines); assay type: functional
[9] = tested on: UACC-62; assay: Anticancer activity against human UACC-62 cells assessed as cell growth inhibition; assay type: functional
[10] = tested on: SF-295; assay: Anticancer activity against human SF-295 cells assessed as cell growth inhibition; assay type: functional
[11] = tested on: SK-OV-3; assay: Anticancer activity against human SK-OV-3 assessed as cell growth inhibition incubated for 72 hrs by MTT assay; assay type: functional, cell-based; settings: SK-OV-3, 72 h
[12] = tested on: HeLa; assay: Anticancer activity against human HeLa cells assessed as cell growth inhibition; assay type: functional, cell-based
[13] = tested on: MCF7; assay: Anticancer activity against human MCF7 assessed as cell growth inhibition incubated for 24 hrs by MTT assay; assay type: functional, cell-based; settings: MCF7, 24 h
[14] = tested on: PC-3; assay: Anticancer activity against human PC-3 assessed as cell growth inhibition incubated for 24 hrs by MTT assay; assay type: functional, cell-based; settings: PC-3, 24 h
[15] = tested on: MDA-MB-231; assay: Anticancer activity against human MDA-MB-231 cells assessed as cell viability at 10 uM measured after 7 days relative to control; assay type: functional; settings: MDA-MB-231, 168 h, time 7 day, read-out: Activity
[16] = tested on: HT-29; assay: cells; settings: Homo sapiens, HT-29, 48 h
Description: Anti cancer activity against human HT-29 cell assessed as cell growth inhibition incubated for 48 hrs by Brdu assay

[17] = tested on: Caco-2; assay: cells; settings: Homo sapiens, Caco-2, 48 h
Description: Anti cancer activity against human Caco-2 cell assessed as cell growth inhibition incubated for 48 hrs by Brdu assay

[18] = tested on: B16-F10; assay: Anti cancer activity against mouse B16-F10 cells assessed as cell growth inhibition incubated for 40 hrs by Almar Blue stained fluorescence-based assay; assay type: functional; settings: B16-F10, 40 h
[19] = tested on: MDA-MB-157; assay: Anticancer activity against human MDA-MB-157 cells assessed as cell viability at 10 uM measured after 7 days relative to control; assay type: functional; settings: MDA-MB-157, 168 h, time 7 day, read-out: Activity
[20] = tested on: MCF7; assay: Anticancer activity against human MCF7 cells assessed as cell viability at 10 uM measured after 7 days relative to control; assay type: functional; settings: MCF7, 168 h, time 7 day, read-out: Activity
[21] = tested on: B16-F10; assay: Anti cancer activity against mouse B16-F10 cells assessed as cell growth inhibition incubated for 40 hrs by Almar Blue stained fluorescence-based assay relative to control; assay type: functional
[22] = tested on: ZR-75-1; assay: Anticancer activity against human ZR-75-1 cells assessed as cell viability at 10 uM measured after 7 days relative to control; assay type: functional; settings: ZR-75-1, 168 h, time 7 day, read-out: Activity
[23] = tested on: HepG2; assay: cells; settings: Homo sapiens, HepG2, 48 h
Description: Anti cancer activity against human HepG2 cell assessed as cell growth inhibition incubated for 48 hrs by Brdu assay

[24] = tested on: BT-549; assay: Anticancer activity against human BT-549 cells assessed as cell viability at 10 uM measured after 7 days relative to control; assay type: functional; settings: BT-549, 168 h, time 7 day, read-out: Activity
[25] = tested on: MDA-MB-231; assay: Anticancer activity against human MDA-MB-231 cells assessed as cell growth inhibition incubated for 48 hrs by SRB assay; assay type: functional, cell-based; settings: MDA-MB-231, 48 h
[26] = tested on: PANC-1; assay: Anticancer activity against human PANC-1 cells assessed as cell growth inhibition incubated for 48 hrs by SRB assay; assay type: functional
[27] = tested on: MCF7; assay: Anticancer activity against human MCF7 cells assessed as reduction of cell viability incubated for 48 hrs by MTT assay; assay type: functional, cell-based; settings: MCF7, 48 h
[28] = tested on: MCF-12A; assay: Anticancer activity against human MCF-12A cells assessed as reduction of cell viability incubated for 48 hrs by MTT assay; assay type: functional, cell-based
[29] = tested on: HaCaT; assay: Anticancer activity against human HaCaT cells assessed as reduction of cell viability incubated for 48 hrs by MTT assay; assay type: functional, cell-based
[30] = tested on: A-431; assay: Anticancer activity against human A-431 cells assessed as reduction of cell viability incubated for 48 hrs by MTT assay; assay type: functional, cell-based; settings: A-431, 48 h
[31] = tested on: HCT-116; assay: Anticancer activity against human HCT-116 cells assessed as cell growth inhibition incubated for 4 days; assay type: functional, cell-based; settings: HCT-116, 96 h
[32] = tested on: A2780; assay: Anticancer activity against human A2780 cells assessed as cell growth inhibition incubated for 24 hrs […] by MTT assay; assay type: functional, cell-based; settings: A2780, 24 h
[33] = tested on: A2780; assay: Anticancer activity against human A2780 cells assessed as cell growth inhibition by LDH release assay; assay type: functional, cell-based
[34] = Anticancer activity against human HOSE cells assessed as cell growth inhibition by LDH release assay; assay type: functional, cell-based
[35] = tested on: SK-OV-3; assay: Anticancer activity against human SK-OV-3 cells assessed as cell growth inhibition incubated for 24 hrs […] by MTT assay; assay type: functional, cell-based; settings: SK-OV-3, 24 h
[36] = tested on: OVCAR-3; assay: Anticancer activity against human OVCAR-3 cells assessed as cell growth inhibition incubated for 24 hrs […] by MTT assay; assay type: functional, cell-based; settings: OVCAR-3, 24 h
[37] = Anticancer activity against human Peritoneal mesothelial cells assessed as cell growth inhibition by LDH release assay; assay type: functional, cell-based
[38] = tested on: OVCAR-3; assay: Anticancer activity against human OVCAR-3 cells assessed as cell growth inhibition by LDH release assay; assay type: functional, cell-based
[39] = Anticancer activity against human HOSE cells assessed as cell growth inhibition incubated for 24 hrs […] by MTT assay; assay type: functional, cell-based
[40] = tested on: SK-OV-3; assay: Anticancer activity against human SK-OV-3 cells assessed as cell growth inhibition by LDH release assay; assay type: functional, cell-based
[41] = Anticancer activity against human Peritoneal mesothelial cells assessed as cell growth inhibition incubated for 24 hrs […] by MTT assay; assay type: functional, cell-based
[42] = Anticancer activity against human MuM-2B cells assessed as cell growth inhibition incubated for 72 hrs by CCK-8 assay; assay type: functional, cell-based
[43] = molecular target: T1, Aromatase (Homo sapiens, UniProt P11511); assay: Inhibition of human recombinant aromatase using 7-methoxy-4-trifluoromethyl coumarin as substrate preincubated for 10 mins followed by compound addition measured after 30 mins in presence of NADPH by HTS analysis
T1 sequence (P11511 whole entry): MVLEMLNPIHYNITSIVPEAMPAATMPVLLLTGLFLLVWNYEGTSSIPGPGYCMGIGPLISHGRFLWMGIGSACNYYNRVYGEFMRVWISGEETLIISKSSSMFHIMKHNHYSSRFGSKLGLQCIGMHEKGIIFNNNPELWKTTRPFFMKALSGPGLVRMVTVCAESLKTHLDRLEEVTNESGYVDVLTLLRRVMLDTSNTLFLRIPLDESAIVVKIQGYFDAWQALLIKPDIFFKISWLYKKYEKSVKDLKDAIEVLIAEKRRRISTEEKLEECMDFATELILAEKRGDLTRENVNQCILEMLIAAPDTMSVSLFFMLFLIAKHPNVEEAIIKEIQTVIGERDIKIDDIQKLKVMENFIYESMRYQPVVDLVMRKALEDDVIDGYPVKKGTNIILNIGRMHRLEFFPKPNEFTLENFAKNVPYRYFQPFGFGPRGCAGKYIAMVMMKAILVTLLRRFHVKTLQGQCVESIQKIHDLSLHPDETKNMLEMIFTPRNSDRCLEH

[44] = Cytotoxicity activity against human CCD-1059Sk cells assessed as cell growth inhibition incubated for 48 hrs by MTS assay; assay type: toxicity, cell-based
[45] = in vitro; settings: human, CCD-1059Sk cells and MCF7 cells
Description: Selectivity index, ratio of IC50 for cytotoxicity against CCD-1059Sk cells to IC50 for antiproliferative activity against MCF7 cells

[46] = tested on: MCF7; assay: Anticancer activity against human MCF7 cells assessed as cell growth inhibition incubated for 48 hrs by MTS assay; assay type: functional, cell-based; settings: MCF7, 48 h
[47] = Cytotoxicity activity against human CCD-1059Sk cells assessed as cell growth inhibition incubated for 48 hrs in presence of resveratrol by MTS assay; assay type: toxicity, cell-based
[48] = in vitro; settings: human, CCD-1059Sk cells and MCF7 cells; remark: listed apart in the source
Description: Selectivity index, ratio of IC50 for cytotoxicity against CCD-1059Sk cells to IC50 for antiproliferative activity against MCF7 cells in presence of resveratrol

[49] = tested on: MCF7; assay: Anticancer activity against human MCF7 cells assessed as cell growth inhibition incubated for 48 hrs in presence of resveratrol by MTS assay; assay type: functional, cell-based; settings: MCF7, 48 h

## COc1ccc(NC(=O)c2cc(OC)cc(OC)c2)cc1
[1]
  pIC50: 4.32
[2]
  pIC50: 4.41

## COc1cc(/C(C#N)=C/c2ccc3ccccc3c2)cc(OC)c1OC
[3]
  GI50: ≤ 0.025 µM
[4]
  GI50: ≤ 0.025 µM
[5]
  GI50: ≤ 0.025 µM
[6]
  GI50: ≤ 0.025 µM
[7]
  CC50: 0.2 µM

## COc1ccc(/C=C(\C#N)c2cc(OC)c(OC)c(OC)c2)cc1O
[8]
  GI50: < 0.01 µM

## COc1ccc(/C(C#N)=C/c2ccc3ccccc3c2)cc1OC
[9]
  GI50: 0.025 µM
[10]
  GI50: 0.025 µM
[4]
  GI50: 0.025 µM
[7]
  CC50: 0.45 µM

## COc1cc(OC)cc(-n2cnc(-c3ccc(O)cc3)c2)c1
[11]
  pIC50: 4.74

## CC(=O)Oc1ccc(/C=C/c2ncc3cccc(OC(C)=O)c3n2)cc1OC(C)=O
[12]
  pIC50: 4.99

## Oc1ccc(/C=C/c2cccc(Br)n2)cc1O
[13]
  pIC50: 4.84
[14]
  pIC50: 4.91

## COc1ccc(/C=C\c2cc(OC)cc(OC)c2)cc1 [8Z-3,4',5-TRIMETHOXYSTILBENE]
[15]
  viability at 10 µM: 10%
[16]
  pIC50: 6.94
[17]
  pIC50: 6.84
[18]
  pIC50: 6.00
[19]
  viability at 10 µM: 25%
[20]
  viability at 10 µM: 50%
[21]
  inhibition (INH): 75%
[22]
  viability at 10 µM: < 50%
[23]
  pIC50: 6.33
[24]
  viability at 10 µM: 70%

## COc1cc(/C=C/c2ccc(OC(=O)CSc3nnc(-c4cccc(C(F)(F)F)c4)o3)cc2)cc(OC)c1
[25]
  pIC50: 7.14
[26]; 48 h
  GI50: 0.094 µM
[26]; Homo sapiens, PANC-1, 48 h
  GI50: 0.064 µM

## COc1cc(/C=C/c2ccc(SC)cc2)cc(OC)c1OC
[27]
  pIC50: 5.68
[28]
  pIC50: 4.59
[29]
  pIC50: 5.00
[30]
  pIC50: 4.71

## CC1c2cc(O)c(O)cc2Oc2cc(/C=C/c3ccc(O)cc3)cc(O)c21 (stereo not drawn)
[31]
  pIC50: 5.02

## COc1ccc(/C=C\c2cc(OC)c(OC)c(OC)c2)cc1O [COMBRETASTATIN A4]
[8]
  GI50: < 0.01 µM

## Oc1ccc(/C=C/c2ccc(O)c(O)c2)cc1O
[32]
  pIC50: 5.40
[33]
  pIC50: 5.22
[34]
  pIC50: 3.27
[35]
  pIC50: 5.10
[36]
  pIC50: 4.30
[37]
  pIC50: 3.30
[38]
  pIC50: 4.07
[39]
  pIC50: 3.30
[40]
  pIC50: 5.00
[41]
  pIC50: 3.30

## COc1cc(/C=C/c2ccc(OCC(=O)O[C@H]3c4cc5c(cc4[C@@H](c4cc(OC)c(OC)c(OC)c4)[C@H]4C(=O)OC[C@@H]43)OCO5)cc2)cc(OC)c1
[42]
  pIC50: 7.09

## COc1ccccc1/C=C/c1ccc(OC)c(OC)c1
[43]
  pIC50: 4.07

## COc1cc(/C=C/C(=O)CC(=O)/C=C/c2ccc(O)c(OC)c2)ccc1O [CURCUMIN]
[44]
  IC50 at 48 h: 133 µM
[45]
  selectivity ratio: 1.93
[46]
  pIC50: 4.17
[47]
  IC50 at 48 h: 83.1 µM
[48]
  selectivity ratio: 1.35
[49]
  pIC50: 4.21
